One experiment deals with FL9.2 T cells. Kind of experiment: FL9 peptide immunization of hosts adoptively transferred with FL9.2 T cells. The conditions noted are these: i.p. immunization with peptide in CFA; CD45.1+ B6 or TCRα-/- hosts. In kind it is in vivo, mouse. The method, then: CD45.1+B6 hosts were adoptively transferred with FL9.2 T cells and immunized i.p. with FL9 in CFA or no peptide (CFA alone) on day 0. Three days later, activation (CD69) proliferation of FL9.2 T cells (Ki67) was measured.
CD45.1^+ B6 or TCRα^−/− mice were transferred with CFSE labelled 2×10^6 FL9.2 Tg T cells followed by i.p. immunization with 100 μg FL9 or FL9-68 peptides in CFA. Proliferation and activation of FL9.2 Tg T cells in the adoptive hosts were analzyed by assessing CFSE dilution, Ki67 and CD69 expression at day 3 and 6 after transfer.
CD45.1^+B6 or TCRα^−/− mice were transferred with CFSE labelled 2×10^6 FL9.2 Tg T cells followed by i.p. immunization with 100 μg FL9 or FL9-68 peptides in CFA. Proliferation and activation of FL9.2 Tg T cells in the adoptive hosts were analzyed by assessing CFSE dilution, Ki67 and CD69 expression at day 3 and 6 after transfer.

Experiment [1] concerns I-Ab/Ova323-339 Tet+ CD4 cells. Kind of experiment: FL9-68 vaccination followed by Ova323-339/CFA immunization. It counts as in vivo, mouse. The method, then:
FIG. 58(E) CD45.1^+ B6 mice that were vaccinated with FL9-68 in CFA or CFA alone on day 0 were immunized with Ova323-339 peptide in CFA on day 6. The frequency of I-Ab/Ova323-339 Tet^+ CD4 cells in activated (CD44^+) CD4 cells in the spleen and dLN was analyzed on day 14.

In experiment [2] the test system is fully-mismatched kidney transplants. Put plainly: BALB/c to B6 kidney transplantation with FL9-SA vaccination. In kind it is in vivo, mouse. The method, then:
The left kidney of BALB/c mice (H-2^d) was recovered using a full-length ureter and transplanted into a B6 host (H-2^b). The ureter of the remaining native kidney was then ligated on post-operative day 2-4 to inhibit native kidney function. Surgical success was determined if mice survived seven days post-surgery (POD). Transplanted B6 hosts were treated intraperitoneally with FL9-SA (50 μg), or PBS emulsified in Adjuvant (Addavax™), once a week starting POD2. On day 20 following kidney transplantation (n=5-7/group), allograft draining lymphoid tissues were assessed for FL9-specific Treg (Qa-1-FL9 Tet^+), Tfh, GC B and plasma cells, DSA levels in sera, capillary C4d deposition and gross anatomy of kidney allografts. Survival of kidney allografts was measured by survival of recipients with absence of native kidney function.

A further experiment has as its system MCMV. Put plainly: Murine MCMV infection model with FL9-68 vaccination. It counts as in vivo, mouse. As for the experimental part: FIG. 10A-C provides a graphical representation showing FL9-68-dependent mobilization of CD8 Treg dampens autoantibody responses during MCMV infection. WT B6 mice were infected with MCMV (2×10^5 pfu) and vaccinated with (100 ug/dose) FL9-68 in IFA or IFA alone at day 0, 8 and 12. Mice were bled at day 3, 10 and 18 and levels of anti-dsDNA Ab (panel A), viral titer (panel B) and frequency of activated CD8 Treg (panel C, Ly49+NKG2D+CD8) are shown.

In another experiment the test system is EL4 tumor cells (Qa-1+). Kind of experiment: EL4 tumor growth in B6 mice. The conditions noted are these: EL4 (Qa-1 WT) in B6 mice; vs isotype control / IFA alone; listed as FL9-68 SA. In kind it is in vivo, mouse. The method, then: FIG. 9A-B provides a graphical representation showing that the depletion of CD8 Treg enhances anti-tumor immune responses. WT B6 mice were inoculated with 2×10^5 EL4 (Qa-1 WT) orEL4-Qa-1 KO cells. Mice received EL4 WT or EL4 Qa-1 KO cells were treated with four different conditions: 1) PBS/IFA+ isotype control Ab (mIgG1), 2) PBS/IFA+ anti-Ly49F Ab, 3) PBS/IFA+anti-Qa-1 Ab and 4) FL9.68/IFA+isotype Ab (mIgG1). 100 ug of FL9.68 peptide (day 0 and day 10), 50 ug of anti-Ly49F Ab and 100 ug of anti-Qa-1 Ab (day 0, 3 and 6) were injected respectively. A) Status of Ly49+CD8 cells in the blood at day 3 and 6 after tumor induction (panel A). Tumor growth in mice inoculated with EL4 WT (left) andEL4 Qa-1 KO (right) tumor cells until day 7. […] This effect was not observed in mice inoculated with EL4-Qa-1KO tumor cells (panel B).

The next experiment deals with FL9 T cells. Kind of experiment: In vitro FL9 T cell proliferation and killing of activated CD4 cells. It counts as cell-based.
The next experiment relates to Balb/C heart allografts. Kind of experiment: Balb/C heart transplantation into skin-sensitized B6 hosts after peptide vaccination. The conditions noted are these: for heart graft survival: compared to adjuvant alone; for graft pathology (C4d deposition, immune cell infiltration): heart allografts; for donor-specific antibody (DSA): heart graft / skin-sensitized recipients.

“And” between values parts separate entries of the source, which are not always exact repeats. Identical values can stand only once. “Also recorded” adds a separate entry of the source.

Procedure for Balb/C heart allografts: After selecting FL9-SA, we performed BALB/c to B6 skin transplantation with or without Hsp60p2l6 and FL9-SA, followed by heart transplantation.
B6 mice were immunized i.p with 50 μg FL9-68/IFA or with IFA alone at day 0 and 7 followed by a BALB/C→B6 skin transplant at day 10. FL9-68/IFA or IFA immunization was repeated on days 10, 13 and 16. At day 27, fully vascularized Balb/C hearts were transplanted into the abdominal cavity of B6 mice using microsurgical techniques, as previously described (Cai et al., 2016). Heart graft survival was determined by monitoring palpable heart beating. At day X after skin sensitization, levels of FL9 T cells, Tfh, GC B and plasma cells in dLNs were analyzed by flowcytometry. Serum was collected from the heart graft recipient B6 mice that were either immunized with FL9-68/IFA or IFA alone at day 16. […] Histological analysis of heart grafts was performed by InvivoEx company using anti-C4d Ab (Hycult Biotech) and Vector Blue Alkaline Phosphatase Substrate Kit (Vector Laboratories).
B6 mice were immunized i.p with 50 μg FL9-68-Adjuvant (IFA or AddaVax™) or Adjuvant alone at day 0 and 7 followed by a BALB/C→B6 skin transplant at day 10. FL9-68-Adj or Adj immunization was repeated on days 10, 13 and 16. At day 27, fully vascularized Balb/C hearts were transplanted into the abdominal cavity of B6 mice using microsurgical techniques, as previously described^36. Heart graft survival was determined by monitoring palpable heart beating. At day 16 after skin sensitization, levels of FL9 T cells, Tfh, GC B and plasma cells in dLNs were analyzed by flowcytometry. Serum was collected from the heart graft recipient B6 mice that were either immunized with FL9-68/IFA or IFA alone at day 16. […] Histological analysis of heart grafts was performed by InvivoEx company using anti-C4d Ab (Hycult Biotech) and Vector Blue Alkaline Phosphatase Substrate Kit (Vector Laboratories).

FYAEATLML [FL9-68]: in the experiment on FL9.2 T cells, the “in vivo activation/proliferation of transferred FL9 TCR+ CD8 T cells” value is on record as “activated FL9 TCR^+ CD8 T cells; also recorded: activates FL9 T cells in vivo”. Besides, the “inhibition of the response of I-Ab/Ova323-339 tet+ CD4 cells” value in experiment [1] (FL9-68 in CFA day 0, Ova323-339/CFA day 6, analysis day 14) was 50% and > 50%. Further, the “numbers or percent of non-specifically activated CD4 cells” value in experiment [1] (same experiment as E6) was “did not reduce the numbers or percent of non-specifically activated CD4 cells”. Further, in experiment [2] (CD4+ T cells from B6 hosts), the “CD44+ CD4 T-cell memory responses to irradiated donor lymphocytes” value is “reduced CD44^+ CD4 T-cell memory responses”. The “increase in FL9-specific Treg measured by FL9-Qa-1 tetramers” value in experiment [2] (allograft-draining lymph nodes, day 20 after kidney transplantation) is recorded as over 7 fold. Besides, the “mean survival time of kidney allograft” value in experiment [2] (controls 20.5 days) came to 40 days. The “donor-specific antibody (DSA)” value in experiment [2] (kidney graft recipients) was “markedly reduced donor specific Ab generation; also recorded: significant decrease in DSA”; with Balb/C heart allografts, “decrease of donor specific Ab (DSA) generation; also recorded: reduced donor-specific antibody (DSA) responses; also recorded: inhibits production of DSA”; with Balb/C heart allografts (listed as FL9 SA peptide), “reduced generation of donor specific antibodies”. Besides, in experiment [2] (kidney graft recipients, vs IFA alone), the “GC response: frequency of Tfh, activated GC B and plasma cells” value is listed as “markedly reduced the GC response”. In addition, in experiment [2] (mouse, in vivo), the “C4d deposition in peritubular capillaries of kidney allografts” value is listed as “reduced C4d deposition”. Moreover, in the experiment with MCMV (mouse, in vivo), the “NKG2D+Ly49+ CD8 T cells (activated CD8 Treg)” value is given as “increase of NKG2D+Ly49^+ CD8 T cells”. For the same sequence, the “production of anti-dsDNA Ab” value with MCMV (vaccination at days 0, 8 and 12 after viral infection) was “significantly reduced production of anti-dsDNA Ab”. The EL4 tumor growth entry in the experiment on EL4 tumor cells (Qa-1+) is on record as “facilitated tumor growth”. Further, the “proliferation of FL9 T cells and killing of activated CD4 cells” value with FL9 T cells was “promoted proliferation of FL9 T cells leading to enhanced killing of activated CD4 cells”. In the experiment on Balb/C heart allografts (B6 mice bearing Balb/C skin allograft), the “increase in FL9-specific CD8 cells within the Ly49+ CD8 T cell pool” value was 4-5 fold. Moreover, the heart graft survival entry with Balb/C heart allografts was “significantly prolonged graft survival times; also recorded: promotes graft survival”; in the experiment on Balb/C heart allografts (listed as SA peptide), “significantly prolonged graft survival”. The “graft pathology (C4d deposition, immune cell infiltration)” value in the experiment with Balb/C heart allografts was “markedly diminished graft pathology; also recorded: inhibits graft tissue injury”; in the experiment with Balb/C heart allografts (listed as FL9 SA peptide) it was “maintenance of tissue integrity”. The “GC response: Tfh, GC B and plasma cells” value in the experiment with Balb/C heart allografts (heart graft recipients, vs IFA alone) is “significant reduction of these cells; also recorded: decreased Tfh, GC B and plasma cell formation; also recorded: significantly reduced GC responses; also recorded: inhibition of GC Ab response”. Further, in the experiment with Balb/C heart allografts (recipient CD4 cells co-incubated with irradiated donor splenocytes), the “alloreactive activated CD4 cells” value was “decrease in alloreactive activated CD4 cells”. Also, the “efficacy relative to Hsp60p216” value with Balb/C heart allografts (reduction in Tfh and mature B cells during sensitization, listed as FL9-SA) is “substantially more efficacious than Hsp60p2l6”.

The values are drawn from patent US20240415919A1, “COMPOSITIONS AND METHODS FOR TREATMENT OF AUTOIMMUNE DISORDERS AND CANCER” (Dana-Farber Cancer Institute, Inc., priority 2021, published 2024).
